Patent US9040071B2, “Pary-xylene based microfilm elution devices” (Cute Lovable Teddy Bear, LLC., priority 2009, dated 2015)
Where a name gives a salt, the structure may show the parent alone.

Key:
Format in all cases: physicochemical
[1] = Doxorubicin-HCl elution, multilayer laminate vs single layer barrier, in water and media (Example 5); settings: for elution rate: compared with 0.05 gram-layer constructs
[2] = Therapeutic spreading on unoxidized vs oxidized parylene layer (Example 1)
Source text: Referring to FIG. 4, Example 1 is an experiment to compare therapeutic spreading with respect to an unoxidized parylene layer and an oxidized parylene layer. The therapeutic analyte was Doxorubicin-HCl. Doxorubicin-HCl is the salt version of the anti-cancer chemotherapeutic Doxorubicin: (8S,10S)-8-acetyl-10-[(2S,4S,5S,6S)-4-amino-5-hydroxy-6-methyl-oxan-2-yl]oxy-6,8,11,14-tetrahydroxy-1-methoxy-9,10-dihydro-7H-tetracene-5,12-dione, having four fused six member rings of which two are unsaturated and one is a dione and a pendant sugar group The Doxorubicin-HCl has a red color and is easily visualized with no additional modification.
FIG. 5 is plot of therapeutic intensity vs. distance a from the a peripheral margin along a great diameter. Discarding values at the margin, for unoxidized paralyene there are two peaks and three troughs with amplitude variation ranging from about 0.009 to about 0.012 with units being arbitrary values of intensity measurement. In contrast, for oxidized paralyene, there are no significant peaks or troughs and near constant intensity at about 0.008.

[3] = Paclitaxel elution from parylene devices (Example 9); settings: uncovered devices (no top layer); PBS, 37 degrees Celsius; judged by visualization of the devices
Source text: Referring to FIG. 14, Example 9 is an experiment to test the elution of paclitaxel (taxol). Paclitaxel is smaller hydrophobic molecule drug and has the chemical composition of (2α,4α,5β,7β,10β,13α)-4,10-bis(acetyloxy)-13-{[(2R,3S)-3-(benzoylamino)-2-hydroxy-3-phenylpropanoyl]oxy}-1,7-dihydroxy-9-oxo-5,20-epoxytax-11-en-2-yl benzoate. It is a microtubule stabilizing therapeutic with anti-cancer properties.
A series of trilayer devices were constructed having a top barrier layer having a mass of 0.3, 0.45, or 0.6 gram oxidized parylene.
Devices containing no top layer (uncovered) were not maintained as part of these experiments in that all of the drug is released from uncovered devices within the first 24 hours. […] With rapidly increasing concentration, the paclitaxel rapidly precipitates out of solution (visible by the accumulation of white precipitate) making quantification of the released drug impossible. Drug release from uncovered devices was determinable by the visualization of the devices and noticing the lack of drug on their surfaces.
For each time point, peak absorbance was measured at 230 nanometers at which paclitaxel is readily detectable.

[4] = oxidized parylene relative to unoxidized parylene, 50 μg desiccated, two replicates

Structure (SMILES): COc1cccc2c1C(=O)c1c(O)c3c(c(O)c1C2=O)C[C@@](O)(C(=O)CO)C[C@@H]3O[C@H]1C[C@H](N)[C@H](O)[C@H](C)O1 [Doxorubicin-HCl]
- drug release vs single layer device of 0.05 gram laminate ([1]; media, multilayer laminate 3×0.05 grams): release less drug
- drug release vs single layer device of 0.05 gram laminate ([1]; media, multilayer laminate 5×0.05 grams): release less drug
- drug release vs single layer device of 0.05 gram laminate ([1]; media, multilayer laminate 7×0.05 grams): release less drug
- elution profile compared among constructs ([1]; media, multilayer laminate constructs of 3×0.05, 5×0.05 and 7×0.05 grams): approximately the same elution profile
- drug release ([1]; media, single layer laminate device of 0.15 grams, regular parylene C): do not release the drug
- drug release ([1]; media, single layer laminate device of 0.25 grams, regular parylene C): do not release the drug
- drug release ([1]; media, single layer laminate device of 0.35 grams, regular parylene C): do not release the drug
- elution profile compared among constructs ([1]; water, constructs of 1×0.05, 3×0.05, 5×0.05 and 7×0.05 grams): approximately the same elution profile
- elution rate ([1]; water, single layer laminate device of 0.15 grams): slower elution
- elution rate ([1]; water, single layer laminate device of 0.25 grams): slower elution
- drug release ([1]; water, single layer laminate device of 0.35 grams): does not release the drug
- radius of stained area [2, 4]: about twice the radius
- surface area of stained area [2, 4]: four times the surface area
- therapeutic intensity ([2]; oxidized parylene, no significant peaks or troughs, near constant): about 0.008 arbitrary values of intensity measurement

Structure (SMILES): CC(=O)O[C@H]1C(=O)[C@@]2(C)[C@H]([C@H](OC(=O)c3ccccc3)[C@]3(O)C[C@H](OC(=O)[C@H](O)[C@@H](NC(=O)c4ccccc4)c4ccccc4)C(C)=C1C3(C)C)[C@]1(OC(C)=O)CO[C@@H]1C[C@@H]2O [paclitaxel, (2α,4α,5β,7β,10β,13α)-4,10-bis(acetyloxy)-13-{[(2R,3S)-3-(benzoylamino)-2-hydroxy-3-phenylpropanoyl]oxy}-1,7-dihydroxy-9-oxo-5,20-epoxytax-11-en-2-yl benzoate]
- time within which all of the drug is released [3]: ≤ 24 h
